Molecules are shown by their SMILES.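 Compound exposure: 48 hours, 5 concentrations, 96-well plates. At the GI50, growth is halved.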 Activity calls are given as the source filed them. No stated cut-off is given here; in the data, active = GI50 up to about 1.1 µM and inactive = higher.

These results are taken from ChEMBL document CHEMBL1201862, “PubChem BioAssay data set” (2004).

Assay in all cases: growth of human tumour cells (NCI), 48 h
Assay [1] relates to DU-145.
For assay [2], the system named is SW-620.
The test system of assay [3] is MDA-MB-231.
In assay [4] the test system is SF-268.
The subject of assay [5] is U-251.
Assay [6] concerns EKVX.
In assay [7] the test system is OVCAR-3.
Assay [8] deals with SK-MEL-28.
Assay [9] has as its system PC-3.
The test system of assay [10] is SK-MEL-2.
In assay [11] the test system is SNB-19.
The subject of assay [12] is RXF 393.
For assay [13], the system named is Hs-578T.
For assay [14], the system named is UACC-62.
The subject of assay [15] is HCT-15.
Assay [16] has as its system IGROV-1.
In assay [17] the test system is UACC-257.
The subject of assay [18] is COLO 205.
Assay [19] concerns A498.

As for `C=C(CO)[C@H]1CC/C(C)=C/CC/C(C)=C/C/C=C(\C)[C@H](O)C1`, the GI50 in [1] was 49.3 µM (inactive); in assay [2] it was 20.2 µM (inactive); in [3] it was 21.6 µM (inactive); in assay [4], 22.2 µM (inactive); in assay [5] it was 19.1 µM (inactive); in [6] it was 33.2 µM (inactive). Moreover, the GI50 in [7] is 33.7 µM (inactive); in assay [8], 16 µM (inactive); in [9], 41.8 µM (inactive); in assay [10], 22.8 µM (inactive); in assay [11], 47.4 µM (inactive); in assay [12] it was 19.9 µM (inactive). In addition, the GI50 is 25.5 µM (inactive) in assay [13]; 23 µM (inactive) in [14]; 50 µM in [15]; 17.8 µM (inactive) in assay [16]; 19.7 µM (inactive) in [17]; 22.3 µM (inactive) in assay [18].

For the molecule `CCn1c(=O)c2c(=O)[nH][nH]c2c2ccccc21`, the GI50 in [1], in [2], in [3], in assay [5], in assay [6] and in assay [7] was > 100 µM (inactive) throughout. Moreover, the GI50 was > 100 µM (inactive) in assay [19]; > 100 µM (inactive) in assay [8]; > 100 µM (inactive) in assay [9]; > 100 µM (inactive) in assay [11]; > 100 µM (inactive) in [13]; over 100 µM in assay [15]. The GI50 in [16], in [17] and in assay [18] was > 100 µM (inactive) each time.

For `CCNC1=C(NC(=O)c2ccc(F)cc2)C(=O)c2ccccc2C1=O`, the GI50 in assay [1] is > 100 µM (inactive); in assay [2], 32.2 µM (inactive); in assay [3], 44.8 µM (inactive); in assay [4] it was > 100 µM (inactive); in assay [6] it was > 100 µM (inactive); in assay [7], 36.6 µM (inactive). Besides, the GI50 in assay [8] is > 100 µM (inactive); in assay [9] it was 17.3 µM (inactive); in [11], > 100 µM (inactive); in [12], 29.4 µM (inactive); in assay [13] it was > 100 µM (inactive); in assay [14] it was 15.1 µM (inactive). Besides, the GI50 was 30.5 µM in assay [15], 31.6 µM (inactive) in assay [16], 15.8 µM (inactive) in [17] and 26.7 µM (inactive) in assay [18].

Regarding `CCOC(=O)CCC(NC(=O)c1ccc(Oc2nc3ccccc3nc2C(=O)OCC)cc1)C(=O)OCC` (stereo not drawn), the GI50 was > 100 µM (inactive) in assay [1]; > 100 µM (inactive) in assay [2]; 40.4 µM (inactive) in [3]; > 100 µM (inactive) in assay [4]; 71.3 µM (inactive) in assay [5]; > 100 µM (inactive) in assay [6]. The GI50 in [7] was > 100 µM (inactive); in [8], > 100 µM (inactive); in [9], > 100 µM (inactive); in assay [10] it was > 100 µM (inactive); in assay [11], 85.5 µM (inactive); in assay [13], > 100 µM (inactive). In addition, the GI50 was > 100 µM (inactive) in [14]; over 100 µM in [15]; > 100 µM (inactive) in [16]; > 100 µM (inactive) in assay [17]; > 100 µM (inactive) in [18].

As to `O=C1C(Cl)C(c2cccc(Cl)c2)N1c1ccc(-n2c(S)nc3ccccc3c2=O)cc1` (stereo not drawn), the GI50 is 35.2 µM (inactive) in [1]; 29.6 µM (inactive) in [2]; 20 µM (inactive) in [3]; 12.6 µM (inactive) in [4]; 13.3 µM (inactive) in assay [5]; 32.1 µM (inactive) in assay [6]. In addition, the GI50 in assay [7] is 30.5 µM (inactive); in assay [9], 27.7 µM (inactive); in [11], 2.47 µM (inactive); in [12], 4.08 µM (inactive); in [13], 20.2 µM (inactive); in assay [14], 14.8 µM (inactive). Further, the GI50 is 1.02 µM in [15], 5.07 µM (inactive) in [16], 26.9 µM (inactive) in [17] and 24.5 µM (inactive) in assay [18].

Turning to `COC(=O)C1=Nc2c(C)nn(-c3ccccc3)c2N=C(c2ccc(C)cc2)C1`, the GI50 in [1], in assay [2], in [3], in assay [4], in [5] and in assay [7] was > 10 µM (inactive) throughout. In addition, the GI50 in [8] was > 10 µM (inactive); in assay [9] it was > 10 µM (inactive); in [11] it was > 10 µM (inactive); in [13], > 10 µM (inactive); in assay [14], > 10 µM (inactive); in assay [15], over 10 µM. The GI50 in [16], in assay [17] and in [18] was > 10 µM (inactive) in each case.

In the case of `COC(=O)C1Cc2cc3c(cc2C1=O)CCCC3` (stereo not drawn), the GI50 is 45.8 µM (inactive) in assay [1]; 47 µM (inactive) in assay [2]; 63.7 µM (inactive) in assay [3]; 62.1 µM (inactive) in assay [4]; 43.5 µM (inactive) in assay [5]; 46.8 µM (inactive) in assay [6]. In addition, the GI50 in assay [7] is > 100 µM (inactive); in [19] it was 53.5 µM (inactive); in assay [8], > 100 µM (inactive); in [9] it was 30.8 µM (inactive); in assay [10], > 100 µM (inactive); in assay [11], 56.5 µM (inactive). Moreover, the GI50 in assay [13] was 48.4 µM (inactive); in assay [14] it was > 100 µM (inactive); in assay [15] it was 43.2 µM; in [16], 67.5 µM (inactive); in [17], > 100 µM (inactive); in [18] it was > 100 µM (inactive).

`COC(=O)C(C(=O)C(=O)Nc1ccccc1C#N)c1nc2ccc([N+](=O)[O-])cc2nc1O` (stereo not drawn): the GI50 in [1] is > 100 µM (inactive); in [2] it was > 100 µM (inactive); in [3], > 100 µM (inactive); in assay [4] it was > 100 µM (inactive); in [5], > 100 µM (inactive); in [6], 78 µM (inactive). The GI50 in assay [7], in assay [8], in assay [9], in assay [10], in assay [11] and in assay [12] was > 100 µM (inactive) in each case. Moreover, the GI50 in assay [13] is > 100 µM (inactive); in [14], > 100 µM (inactive); in assay [15] it was over 100 µM; in [16], 94.4 µM (inactive); in assay [17], > 100 µM (inactive); in [18], > 100 µM (inactive).

As for `O=C(OC1C2OC(=O)c3cc(O)c(O)c(O)c3Oc3cc4c(c(O)c3O)-c3c(cc(O)c(O)c3O)C(=O)OCC3OC(O)C(OC(=O)c5cc(O)c(O)c(O)c5Oc5cc6c(c(O)c5O)-c5c(cc(O)c(O)c5O)C(=O)OC1C(COC6=O)OC2O)C(OC(=O)c1cc(O)c(O)c(O)c1)C3OC4=O)c1cc(O)c(O)c(O)c1` (stereo not drawn), the GI50 in assay [1] is 41 µM (inactive); in [2], 13.2 µM (inactive); in assay [3], 19.6 µM (inactive); in assay [4], 26.4 µM (inactive); in assay [6] it was 12.5 µM (inactive); in [7], 25.8 µM (inactive). For the same molecule, the GI50 in assay [8] was 76.7 µM (inactive); in assay [9] it was 20 µM (inactive); in assay [11], 17.6 µM (inactive); in [12], 21.9 µM (inactive); in assay [13], 32.3 µM (inactive); in [14], 28.4 µM (inactive). Besides, the results for the GI50 in assay [16], in assay [17] and in assay [18] were 40.2 µM (inactive), 81.5 µM (inactive) and 5.87 µM (inactive), respectively.

For the molecule `COc1ccc(C2C3COc4ccccc4C3=NN2c2ccccc2)cc1` (stereo not drawn), the GI50 in [2], in assay [3], in assay [4], in assay [5], in [6] and in assay [7] was > 100 µM (inactive) throughout. The GI50 in [19] was > 100 µM (inactive); in assay [9], 57.7 µM (inactive); in assay [10] it was > 100 µM (inactive); in assay [11], > 100 µM (inactive); in assay [12], > 100 µM (inactive); in assay [13] it was > 100 µM (inactive). Besides, the GI50 is > 100 µM (inactive) in assay [14]; over 100 µM in assay [15]; > 100 µM (inactive) in assay [16]; > 100 µM (inactive) in assay [17]; > 100 µM (inactive) in assay [18].

Turning to `CC(C)C1CC[C@H](C)C[C@@H]1OC(=O)C(C(=O)O[C@H]1C[C@@H](C)CCC1C(C)C)C(O)[C@@H]1OC(C)(C)O[C@H]1C1COC(C)(C)O1` (stereo partly drawn), the GI50 in assay [1] was 18.8 µM (inactive); in assay [2], 14.2 µM (inactive); in [3], 17 µM (inactive); in assay [4], 19.9 µM (inactive); in assay [5] it was 14.2 µM (inactive); in assay [6], 20.8 µM (inactive). Further, the GI50 was 19.9 µM (inactive) in [7]; 18.3 µM (inactive) in [8]; > 10 µM (inactive) in assay [9]; 19.4 µM (inactive) in assay [10]; 16.3 µM (inactive) in assay [11]; 14.7 µM (inactive) in [12]. Further, the GI50 in assay [13] is 15 µM (inactive); in assay [14] it was 18.8 µM (inactive); in [15] it was 20.7 µM; in assay [16] it was 16.8 µM (inactive); in assay [17], 24.6 µM (inactive); in [18], 13.6 µM (inactive).
